Assays:
[1] = The drug is tested on Eubacterium ventriosum strain: ATCC27560 for biotransformation. The drug concentrations were measured before and after a 12-h incubation by liquid-chromatography-coupled mass spectrometry (LC–MS); format: ADME; parameters: dose 2 uM, timepoint 0 vs 12 hours; conditions: 2 µM
[2] = The drug is tested on Clostridium asparagiforme strain: DSM15981 for biotransformation. The drug concentrations were measured before and after a 12-h incubation by liquid-chromatography-coupled mass spectrometry (LC–MS); format: ADME; parameters: dose 2 uM, timepoint 0 vs 12 hours; conditions: enterocloster asparagiformis, 2 µM
[3] = The drug is tested on Bacteroides xylanisolvens strain: DSM18836 for biotransformation. The drug concentrations were measured before and after a 12-h incubation by liquid-chromatography-coupled mass spectrometry (LC–MS); conditions: 2 µM
[4] = bacteroides stercoris, 12 h, 2 µM
Description: The drug is tested on Bacteroides stercoris strain: ATCC43183 for biotransformation. The drug concentrations were measured before and after a 12-h incubation by liquid-chromatography-coupled mass spectrometry (LC–MS)

[5] = The drug is tested on Odoribacter splanchnicus strain: fecal isolate for biotransformation. The drug concentrations were measured before and after a 12-h incubation by liquid-chromatography-coupled mass spectrometry (LC–MS); conditions: 2 µM
[6] = The drug is tested on Clostridium scindens strain: ATCC35704 for biotransformation. The drug concentrations were measured before and after a 12-h incubation by liquid-chromatography-coupled mass spectrometry (LC–MS); conditions: 2 µM
[7] = The drug is tested on Anaerotruncus colihominis strain: DSM17241 for biotransformation. The drug concentrations were measured before and after a 12-h incubation by liquid-chromatography-coupled mass spectrometry (LC–MS); conditions: 2 µM
[8] = bacteroides eggerthii, 12 h, 2 µM
Description: The drug is tested on Bacteroides eggerthii strain: DSM20697 for biotransformation. The drug concentrations were measured before and after a 12-h incubation by liquid-chromatography-coupled mass spectrometry (LC–MS)

[9] = bifidobacterium adolescentis, 12 h, 2 µM
Description: The drug is tested on Bifidobacterium adolescentis strain: ATCC 15703 for biotransformation. The drug concentrations were measured before and after a 12-h incubation by liquid-chromatography-coupled mass spectrometry (LC–MS)

[10] = enterocloster bolteae, 12 h, 2 µM
Description: The drug is tested on Clostridium bolteae strain: ATCCBAA-613 for biotransformation. The drug concentrations were measured before and after a 12-h incubation by liquid-chromatography-coupled mass spectrometry (LC–MS)

[11] = The drug is tested on Eubacterium rectale strain: ATCC33656 for biotransformation. The drug concentrations were measured before and after a 12-h incubation by liquid-chromatography-coupled mass spectrometry (LC–MS); conditions: agathobacter rectalis, 2 µM
[12] = The drug is tested on Ruminococcus lactaris strain: ATCC29176 for biotransformation. The drug concentrations were measured before and after a 12-h incubation by liquid-chromatography-coupled mass spectrometry (LC–MS); conditions: 2 µM
[13] = The drug is tested on Bacteroides sp. WH2 strain: WH2 for biotransformation. The drug concentrations were measured before and after a 12-h incubation by liquid-chromatography-coupled mass spectrometry (LC–MS); conditions: bacteroides sp. wh2, 12 h, 2 µM
[14] = The drug is tested on Bifidobacterium breve strain: DSM20213 for biotransformation. The drug concentrations were measured before and after a 12-h incubation by liquid-chromatography-coupled mass spectrometry (LC–MS); conditions: 2 µM
[15] = The drug is tested on Eubacterium hallii strain: DSM3353 for biotransformation. The drug concentrations were measured before and after a 12-h incubation by liquid-chromatography-coupled mass spectrometry (LC–MS); conditions: anaerobutyricum hallii, 2 µM
[16] = The drug is tested on Bacteroides fragilis strain: ATCC43859 for biotransformation. The drug concentrations were measured before and after a 12-h incubation by liquid-chromatography-coupled mass spectrometry (LC–MS); conditions: 2 µM
[17] = The drug is tested on Bacteroides cellulosilyticus strain: DSM14838 for biotransformation. The drug concentrations were measured before and after a 12-h incubation by liquid-chromatography-coupled mass spectrometry (LC–MS); conditions: 2 µM
[18] = The drug is tested on Bacteroides fragilis strain: HMW615 for biotransformation. The drug concentrations were measured before and after a 12-h incubation by liquid-chromatography-coupled mass spectrometry (LC–MS); conditions: 2 µM
[19] = limosilactobacillus reuteri cf48-3a, 12 h, 2 µM
Description: The drug is tested on Lactobacillus reuteri CF48-3A strain: BEI HM-102 for biotransformation. The drug concentrations were measured before and after a 12-h incubation by liquid-chromatography-coupled mass spectrometry (LC–MS)

Compound: CN(C)CCc1c[nH]c2ccc(CS(=O)(=O)N3CCCC3)cc12 [ALMOTRIPTAN]
- Bacterial Biotransformation [1]: Compound NOT metabolized
- Bacterial Biotransformation [2]: Compound NOT metabolized
- Bacterial Biotransformation [3]: Compound NOT metabolized
- Bacterial Biotransformation [4]: Compound NOT metabolized
- Bacterial Biotransformation [5]: Compound NOT metabolized
- Bacterial Biotransformation [6]: Compound NOT metabolized
- Bacterial Biotransformation [7]: Compound NOT metabolized
- Bacterial Biotransformation [8]: Compound NOT metabolized
- Bacterial Biotransformation [9]: Compound NOT metabolized
- Bacterial Biotransformation [10]: Compound NOT metabolized
- Bacterial Biotransformation [11]: Compound NOT metabolized
- Bacterial Biotransformation [12]: Compound NOT metabolized
- Bacterial Biotransformation [13]: Compound NOT metabolized
- Bacterial Biotransformation [14]: Compound NOT metabolized
- Bacterial Biotransformation [15]: Compound NOT metabolized

Compound: CC(C)NCC(O)COc1ccc(COCCOC(C)C)cc1.CC(C)NCC(O)COc1ccc(COCCOC(C)C)cc1.O=C(O)/C=C/C(=O)O (configuration not stated) [BISOPROLOL FUMARATE]
- Bacterial Biotransformation [16]: Compound NOT metabolized
- Bacterial Biotransformation [17]: Compound NOT metabolized
- Bacterial Biotransformation [1]: Compound NOT metabolized
- Bacterial Biotransformation [3]: Compound NOT metabolized
- Bacterial Biotransformation [4]: Compound NOT metabolized
- Bacterial Biotransformation [5]: Compound NOT metabolized
- Bacterial Biotransformation [6]: Compound NOT metabolized
- Bacterial Biotransformation [7]: Compound NOT metabolized
- Bacterial Biotransformation [8]: Compound NOT metabolized
- Bacterial Biotransformation [9]: Compound NOT metabolized
- Bacterial Biotransformation [10]: Compound NOT metabolized
- Bacterial Biotransformation [18]: Compound NOT metabolized
- Bacterial Biotransformation [11]: Compound NOT metabolized
- Bacterial Biotransformation [12]: Compound NOT metabolized
- Bacterial Biotransformation [13]: Compound NOT metabolized
- Bacterial Biotransformation [14]: Compound NOT metabolized
- Bacterial Biotransformation [15]: Compound NOT metabolized

Compound: CCC1(c2ccc(N)cc2)CCC(=O)NC1=O (configuration not stated) [AMINOGLUTETHIMIDE]
- Bacterial Biotransformation [17]: Compound NOT metabolized
- Bacterial Biotransformation [1]: Compound NOT metabolized
- Bacterial Biotransformation [2]: Compound NOT metabolized
- Bacterial Biotransformation [3]: Compound NOT metabolized
- Bacterial Biotransformation [4]: Compound NOT metabolized
- Bacterial Biotransformation [5]: Compound NOT metabolized
- Bacterial Biotransformation [6]: Compound NOT metabolized
- Bacterial Biotransformation [7]: Compound NOT metabolized
- Bacterial Biotransformation [8]: Compound NOT metabolized
- Bacterial Biotransformation [9]: Compound NOT metabolized
- Bacterial Biotransformation [10]: Compound NOT metabolized
- Bacterial Biotransformation [18]: Compound NOT metabolized
- Bacterial Biotransformation [11]: Compound NOT metabolized
- Bacterial Biotransformation [12]: Compound NOT metabolized
- Bacterial Biotransformation [13]: Compound NOT metabolized
- Bacterial Biotransformation [19]: Compound NOT metabolized
- Bacterial Biotransformation [14]: Compound NOT metabolized
- Bacterial Biotransformation [15]: Compound NOT metabolized

Compound: CN/C(=N/CCSCc1nc[nH]c1C)NC#N [CIMETIDINE]
- Bacterial Biotransformation [17]: Compound NOT metabolized
- Bacterial Biotransformation [1]: Compound NOT metabolized
- Bacterial Biotransformation [2]: Compound NOT metabolized
- Bacterial Biotransformation [3]: Compound NOT metabolized
- Bacterial Biotransformation [4]: Compound NOT metabolized
- Bacterial Biotransformation [7]: Compound NOT metabolized
- Bacterial Biotransformation [8]: Compound NOT metabolized
- Bacterial Biotransformation [9]: Compound NOT metabolized
- Bacterial Biotransformation [10]: Compound NOT metabolized
- Bacterial Biotransformation [11]: Compound NOT metabolized
- Bacterial Biotransformation [12]: Compound NOT metabolized
- Bacterial Biotransformation [13]: Compound NOT metabolized
- Bacterial Biotransformation [19]: Compound NOT metabolized
- Bacterial Biotransformation [14]: Compound NOT metabolized
- Bacterial Biotransformation [15]: Compound NOT metabolized

Compound: COc1cc2c(c(OC)c1OC)-c1ccc(OC)c(=O)cc1[C@@H](NC(C)=O)CC2 [COLCHICINE]
- Bacterial Biotransformation [16]: Compound metabolized
- Bacterial Biotransformation [1]: Compound NOT metabolized
- Bacterial Biotransformation [2]: Compound NOT metabolized
- Bacterial Biotransformation [4]: Compound metabolized
- Bacterial Biotransformation [5]: Compound metabolized
- Bacterial Biotransformation [6]: Compound NOT metabolized
- Bacterial Biotransformation [7]: Compound NOT metabolized
- Bacterial Biotransformation [8]: Compound metabolized
- Bacterial Biotransformation [9]: Compound NOT metabolized
- Bacterial Biotransformation [10]: Compound NOT metabolized
- Bacterial Biotransformation [11]: Compound NOT metabolized
- Bacterial Biotransformation [12]: Compound NOT metabolized
- Bacterial Biotransformation [19]: Compound NOT metabolized
- Bacterial Biotransformation [14]: Compound NOT metabolized
- Bacterial Biotransformation [15]: Compound NOT metabolized

Compound: CC(C)NCC(O)COc1ccc(CC(N)=O)cc1 (configuration not stated) [ATENOLOL]
- Bacterial Biotransformation [17]: Compound NOT metabolized
- Bacterial Biotransformation [1]: Compound NOT metabolized
- Bacterial Biotransformation [2]: Compound NOT metabolized
- Bacterial Biotransformation [3]: Compound NOT metabolized
- Bacterial Biotransformation [6]: Compound NOT metabolized
- Bacterial Biotransformation [7]: Compound NOT metabolized
- Bacterial Biotransformation [8]: Compound NOT metabolized
- Bacterial Biotransformation [9]: Compound NOT metabolized
- Bacterial Biotransformation [10]: Compound NOT metabolized
- Bacterial Biotransformation [11]: Compound NOT metabolized
- Bacterial Biotransformation [13]: Compound NOT metabolized
- Bacterial Biotransformation [19]: Compound NOT metabolized
- Bacterial Biotransformation [14]: Compound NOT metabolized
- Bacterial Biotransformation [15]: Compound NOT metabolized

Compound: CN1CCC(=C2c3ccccc3CCc3cccnc32)CC1.O=C(O)/C=C\C(=O)O.O=C(O)/C=C\C(=O)O [AZATADINE MALEATE]
- Bacterial Biotransformation [17]: Compound NOT metabolized
- Bacterial Biotransformation [1]: Compound NOT metabolized
- Bacterial Biotransformation [2]: Compound NOT metabolized
- Bacterial Biotransformation [4]: Compound NOT metabolized
- Bacterial Biotransformation [6]: Compound NOT metabolized
- Bacterial Biotransformation [7]: Compound NOT metabolized
- Bacterial Biotransformation [8]: Compound NOT metabolized
- Bacterial Biotransformation [9]: Compound NOT metabolized
- Bacterial Biotransformation [10]: Compound NOT metabolized
- Bacterial Biotransformation [11]: Compound NOT metabolized
- Bacterial Biotransformation [12]: Compound NOT metabolized
- Bacterial Biotransformation [13]: Compound NOT metabolized
- Bacterial Biotransformation [19]: Compound NOT metabolized
- Bacterial Biotransformation [14]: Compound NOT metabolized
- Bacterial Biotransformation [15]: Compound NOT metabolized

Compound: CN(C)CCOC(c1ccc(Cl)cc1)c1ccccn1.O=C(O)/C=C\C(=O)O (configuration not stated) [CARBINOXAMINE MALEATE]
- Bacterial Biotransformation [17]: Compound NOT metabolized
- Bacterial Biotransformation [1]: Compound NOT metabolized
- Bacterial Biotransformation [2]: Compound NOT metabolized
- Bacterial Biotransformation [3]: Compound NOT metabolized
- Bacterial Biotransformation [4]: Compound NOT metabolized
- Bacterial Biotransformation [5]: Compound NOT metabolized
- Bacterial Biotransformation [6]: Compound NOT metabolized
- Bacterial Biotransformation [7]: Compound NOT metabolized
- Bacterial Biotransformation [8]: Compound NOT metabolized
- Bacterial Biotransformation [9]: Compound NOT metabolized
- Bacterial Biotransformation [10]: Compound NOT metabolized
- Bacterial Biotransformation [18]: Compound NOT metabolized
- Bacterial Biotransformation [12]: Compound NOT metabolized
- Bacterial Biotransformation [13]: Compound NOT metabolized
- Bacterial Biotransformation [14]: Compound NOT metabolized
- Bacterial Biotransformation [15]: Compound NOT metabolized

Compound: CCOC(=O)[C@H](CCc1ccccc1)N[C@@H](C)C(=O)N1Cc2ccccc2C[C@H]1C(=O)O
- Bacterial Biotransformation [16]: Compound metabolized
- Bacterial Biotransformation [17]: Compound metabolized
- Bacterial Biotransformation [3]: Compound metabolized
- Bacterial Biotransformation [4]: Compound metabolized
- Bacterial Biotransformation [5]: Compound metabolized
- Bacterial Biotransformation [6]: Compound NOT metabolized
- Bacterial Biotransformation [8]: Compound metabolized
- Bacterial Biotransformation [10]: Compound NOT metabolized
- Bacterial Biotransformation [18]: Compound metabolized
- Bacterial Biotransformation [11]: Compound NOT metabolized
- Bacterial Biotransformation [12]: Compound NOT metabolized
- Bacterial Biotransformation [13]: Compound NOT metabolized
- Bacterial Biotransformation [19]: Compound NOT metabolized
- Bacterial Biotransformation [14]: Compound metabolized
- Bacterial Biotransformation [15]: Compound NOT metabolized

Compound: NC12CC3CC(CC(C3)C1)C2 [AMANTADINE]
- Bacterial Biotransformation [17]: Compound metabolized
- Bacterial Biotransformation [1]: Compound NOT metabolized
- Bacterial Biotransformation [2]: Compound NOT metabolized
- Bacterial Biotransformation [4]: Compound NOT metabolized
- Bacterial Biotransformation [5]: Compound NOT metabolized
- Bacterial Biotransformation [6]: Compound NOT metabolized
- Bacterial Biotransformation [7]: Compound NOT metabolized
- Bacterial Biotransformation [8]: Compound NOT metabolized
- Bacterial Biotransformation [9]: Compound NOT metabolized
- Bacterial Biotransformation [10]: Compound NOT metabolized
- Bacterial Biotransformation [18]: Compound NOT metabolized
- Bacterial Biotransformation [11]: Compound NOT metabolized
- Bacterial Biotransformation [12]: Compound NOT metabolized
- Bacterial Biotransformation [13]: Compound NOT metabolized
- Bacterial Biotransformation [19]: Compound NOT metabolized
- Bacterial Biotransformation [14]: Compound NOT metabolized
- Bacterial Biotransformation [15]: Compound NOT metabolized
